The values below come from PMC9332833 (Cancers, 2022).

Each structure is given as a SMILES string.

Series [1] relates to CD34+ cells from CML patients. Briefly: MTT viability assay, CML CD34+ cells. Type of series: cell-based. The settings on record: Homo sapiens, 48 h. On the procedure:
Blood samples were taken (venipuncture, EDTA-K2 Vacutainer tubes, Becton Dickinson, Franklin Lakes, NJ, USA) from 8 chronic phase CML patients (CML1–CML8; 4 men and 4 women, aged 39–79) diagnosed at the Department of Hematology, University Clinical Center, Medical University of Warsaw, following their written consent. The diagnosis was carried out by qualified clinical staff based on an interview, blood parameters and molecular tests detecting BCR-ABL1 (transcript b3a2). Peripheral blood mononuclear cells were immediately isolated from the fresh blood sample using standard protocol (Supplementary Methods). […]
Cells were seeded in 96-well plates; after 24 h, medium with the appropriate drug concentration was added to each well. […] Absorbance was read using an iMark Microplate absorbance reader (Bio-Rad, Hercules, CA, USA). Results were calculated relative to cells treated with DMSO only.
[…] Next, we isolated CD34+ cells (EasySep™ Human CD34 Positive Selection Kit II, StemCell Technologies, Vancouver, Canada), counted them and assessed viability with Muse Cell Analyzer (Merck Millipore, Burlington, MA, USA). […] The purity of the live CD34+ fraction was assessed by flow cytometry with anti-human CD34-APC antibody, compared with an appropriate isotype control (Biolegend, San Diego, CA, USA), and propidium iodide (Sigma-Aldrich, St. Louis, MO, USA). […]
Background: Tetrazolium dyes change colour on reduction, which living cells bring about.

Another series concerns K562-MDR1 cells. In words: MTT viability test, K562-MDR1. Type of series: cell-based, human. Particulars: Homo sapiens; MTT, 48 h. The text has this: The K562-MDR1 cell line was developed using increasing concentrations of the commonly used antimitotic drug vincristine on a polyclonal K562 population, as described earlier. […] The DMSO concentration in the culture was 0.1%. The vincristine dose was doubled every 2–3 weeks (at least twice for each experiment) after the cells reached confluence. Cell’s viability was above 90%, as confirmed by Muse Cell Analyzer (Merck Millipore, Burlington, MA, USA). The final concentration of vincristine reached was 0.1 μM. The increase in the K562-MDR1 population was confirmed by flow cytometry and PCR.
Cells were seeded in 96-well plates; after 24 h, medium with the appropriate drug concentration was added to each well. After 48 h, Tetrazolium Bromide (Sigma-Aldrich, St. Louis, MO, USA) was added to each well for 2–3 h. After that, cells were lysed and formazan crystals were dissolved. Absorbance was read using an iMark Microplate absorbance reader (Bio-Rad, Hercules, CA, USA). Results were calculated relative to cells treated with DMSO only. […]
Cells were seeded in 96-well plates at 7 × 10^3 cells/well in 50 µL of complete medium (for K562 or K562-MDR1) or at 50 × 10^3 cells/well in 50 µL of complete medium (CD34+ cells). After 24 hours, 50 µL of medium with the appropriate drug concentration was added to each well. The final DMSO concentration per well was 1% for K562 and K562-MDR1 and 0.1% for CD34+ cells. After 48 hours, 20 µL of Tetrazolium Bromide (Sigma-Aldrich, St. Louis, MO, USA) at a concentration of 5 mg/mL was added to each well. Cells were incubated for 2-3 hours in a cell culture incubator, and then 10% SDS with 1% HCl was added to each well to lyse the cells and dissolve the formazan crystals. Plates were […]

Series [2] is described as follows: Body and organ weights in K562 xenograft mice. The settings on record: for Brain weight / Heart weight / Kidneys weight / Liver weight / Lung weight / Splean weight: mean ± SD, N=4.
Experimental: Eight-week-old female NOD.Cg-Prkdcscid Il2rgtm1Wjl/SzJ NSG mice (Jackson Laboratory, Bar Harbor, ME, USA) were injected subcutaneously into the dorsal fold with 1 × 10^6 K562 cells of the human chronic myeloid leukemia (CML) line in a final volume of 100 µL (0.5% of the mouse weight). On day 3 after cell administration, mice were randomly assigned to each group, and on days 4–17 of the experiment, the selected tested compounds and control solutions were administered intraperitoneally or orally. During the experiment, subcutaneous tumors and body weight were measured daily. Tumor growth during the experiment was measured with an electronic display caliper. The theoretical tumor volume [mm], was calculated according to the formula (a^2 × b) * 0.5, where a is the shorter tumor axis [mm] and b is the longer tumor axis [mm]. On day 26, the experiment was terminated: blood was collected and analyzed for cellular morphology and standard biochemistry metabolites. Tumors were weighed.
Control and treated mice were grouped according to the tested compounds and the scheme of their administrations (doses, administration frequencies, routes of administration) in the CML xenogeneic model obtained by subcutaneous transplantation of 1 × 10^6 cells of the human CML blast line K562 into mice NOD.Cg-Prkdcscid Il2rgtm1Wjl/SzJ (NSG).
Hydroxyurea K562 500 mg/kg, IP Aqua pro 1 x daily 8

As usually defined, the IC50 is the point on the concentration scale where inhibition reaches its midpoint. A lower IC50 goes with greater potency. Turning to `CCC12C(=O)C(CC)(C(c3ccccc3)=C1c1ccccc1)C1C(=O)N(CC(O)CNC(C)C)C(=O)C12` (stereo not shown) [BK124.1, 4-[2-hydroxy-3-(propan-2-ylamino)propyl]-1,7-diethyl-8,9-diphenyl-4-azatricyclo [5.2.1.02,6]dec-8-ene-3,5,10-trione], it took 1500 nM to reach half-maximal inhibition in series [1] (IC50). In addition, half-maximal inhibition with K562-MDR1 cells (IC50) was put at 2160 nM. In series [2] (20 mg/kg IP daily 14 days), this compound returned a Brain weight of 0.47 ± 0.02 g, a Heart weight of 0.10 ± 0.00 g, a Kidneys weight of 0.26 ± 0.03 g and a Liver weight of 1.09 ± 0.10 g. Further, in series [2] (20 mg/kg IP daily 14 days), the Lung weight was 0.24 ± 0.10 g and the Splean weight was found to be 0.03 ± 0.02 g. In series [2] (30 mg/kg IP daily 14 days), this compound had a Brain weight of 0.47 ± 0.01 g, a Heart weight of 0.10 ± 0.02 g, a Kidneys weight of 0.28 ± 0.02 g and a Liver weight of 1.27 ± 0.11 g. In series [2] (30 mg/kg IP daily 14 days), the Lung weight worked out at 0.34 ± 0.02 g and the Splean weight worked out at 0.03 ± 0.01 g. Besides, in series [2] (doses as in Table S3), the “Morphology or weight of internal organs (liver, spleen, kidneys, lungs, heart) versus untreated controls” value was “no changes”. For the same compound, in series [2] (doses as in Table S3, control mice gained mass in the last 5 days), the “Total body weight course” value is listed as “No such increase occurred”.
